From US8399465B2, “Compounds with two fused bicyclic heteroaryl moieties as modulators of leukotriene A4 hydrolase” (Janssen Pharmaceutica NV, priority 2009, dated 2013)
Where a name gives a salt, the structure may show the parent alone.

Columns and labels:
[1] = system: LTB4 production in murine blood (LTA4H); assay: LTB4 production by calcium ionophore-stimulated murine blood for LTA4H inhibitor activity; type: cell-based, CD-1 mice; details: Mus musculus; murine blood diluted 1 in 15, A23187 stimulated; single determination or average; mark after value = form tested: ′ free base, ″ hydrochloride, ^ formate; read-out: IC50
In short: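 Heparinized blood from CD-1 mice was preincubated with compound for 15 min at 37° C, then stimulated with calcium ionophore A23187 (final 7 μg/mL) for 30 min. Centrifugation stopped the reaction, and LTB4 in the supernatant was measured by enzyme immunoassay. Values are single determinations or means of two or more.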

[2] = biological target: T1, recombinant human LTA4 hydrolase (rhLTA4H) (Homo sapiens, UniProt P09960); assay: Recombinant human LTA4 hydrolase assay for LTA4 hydrolase inhibitor activity; type: biochemical; details: rhLTA4H, LTB4 by immunoassay; single determination or average of two or more; mark after value = form tested: ′ free base, ″ hydrochloride, ^ formate; read-out: IC50
T1 construct: made in house; host or cells: Spodoptera frugiperda (Sf-9) cells, baculovirus (pFastBac1)
T1 sequence (P09960 1-611): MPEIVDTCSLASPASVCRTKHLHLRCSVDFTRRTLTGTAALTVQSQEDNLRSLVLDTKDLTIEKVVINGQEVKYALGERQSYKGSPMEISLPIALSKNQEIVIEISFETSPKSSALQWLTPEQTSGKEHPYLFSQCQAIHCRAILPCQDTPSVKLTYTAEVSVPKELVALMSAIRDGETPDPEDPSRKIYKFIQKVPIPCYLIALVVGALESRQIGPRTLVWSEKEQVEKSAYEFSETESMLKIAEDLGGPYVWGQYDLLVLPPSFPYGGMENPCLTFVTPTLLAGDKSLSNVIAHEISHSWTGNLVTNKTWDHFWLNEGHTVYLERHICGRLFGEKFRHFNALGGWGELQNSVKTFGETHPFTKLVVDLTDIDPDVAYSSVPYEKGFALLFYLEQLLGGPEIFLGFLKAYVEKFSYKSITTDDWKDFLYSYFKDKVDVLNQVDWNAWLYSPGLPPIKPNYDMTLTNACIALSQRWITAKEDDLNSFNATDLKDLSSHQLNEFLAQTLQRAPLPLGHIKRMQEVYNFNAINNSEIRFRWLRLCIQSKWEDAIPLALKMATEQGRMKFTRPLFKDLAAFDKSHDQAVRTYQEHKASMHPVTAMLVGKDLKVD
In short: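 Baculovirus/Sf-9-expressed human LTA4H (10 ng) was preincubated 10 min at rt with compound in assay buffer (10% DMSO in compound dilution), then reacted 30 min at rt with LTA4 free acid made from its methyl ester. LTB4 produced was measured by ELISA after dilution; IC50 from non-linear regression, single or averaged determinations.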

Row | SMILES | IC50 [1] | IC50 [2]
1 | O=C(C1CCC1)N1C[C@@H]2C[C@H]1CN2Cc1coc2cc(Oc3nc4ncccc4s3)ccc12 [Example 357, (1S,4S)-Cyclobutyl-{5-[6-(thiazolo[4,5-b]pyridin-2-yloxy)-benzofuran-3-ylmethyl]-2,5-diaza-bicyclo[2.2.1]hept-2-yl}-methanone] | 220 nM | 7 nM
2 | O=C(c1ccno1)N1C[C@@H]2C[C@H]1CN2Cc1coc2cc(Oc3nc4ncccc4s3)ccc12 [Example 358, (1S,4S)-Isoxazol-5-yl-{5-[6-(thiazolo[4,5-b]pyridin-2-yloxy)-benzofuran-3-ylmethyl]-2,5-diaza-bicyclo[2.2.1]hept-2-yl}-methanone] | 14 nM | 9 nM
3 | O=C(c1ccoc1)N1CC2CN(Cc3coc4cc(Oc5nc6ncccc6s5)ccc34)CC2C1 (stereo not shown) [Example 359, Furan-3-yl-{5-[6-(thiazolo[4,5-b]pyridin-2-yloxy)-benzofuran-3-ylmethyl]-hexahydro-pyrrolo[3,4-c]pyrrol-2-yl}-methanone] | 190 nM | 8 nM
4 | COC(=O)c1ccc(CN2C[C@@H]3C[C@H]2CN3Cc2coc3cc(Oc4nc5ncccc5s4)ccc23)cc1 [Example 360, (1S,4S)-4-{5-[6-(Thiazolo[4,5-b]pyridin-2-yloxy)-benzofuran-3-ylmethyl]-2,5-diaza-bicyclo[2.2.1]hept-2-ylmethyl}-benzoic acid methyl ester] | 350 nM | 17 nM
5 | CN(C)Cc1coc2cc(Oc3nc4ncccc4s3)ccc12 [Example 361, Dimethyl-[6-(thiazolo[4,5-b]pyridin-2-yloxy)-benzofuran-3-ylmethyl]-amine] | 10 nM | 20 nM
6 | CS(=O)(=O)NC1CCN(Cc2coc3cc(Oc4nc5ccccc5s4)ccc23)CC1 [Example 363, N-{1-[6-(Benzothiazol-2-yloxy)-benzofuran-3-ylmethyl]-piperidin-4-yl}-methanesulfonamide] | 400 nM | 37 nM
7 | CS(=O)(=O)NCCC1CCN(Cc2coc3cc(Oc4nc5ccccc5s4)ccc23)CC1 [Example 364, N-(2-{1-[6-(Benzothiazol-2-yloxy)-benzofuran-3-ylmethyl]-piperidin-4-yl}-ethyl)-methanesulfonamide] | 310 nM | 18 nM
8 | CC(=O)NC1CCN(C(=O)c2coc3cc(Oc4nc5ncccc5s4)ccc23)CC1 [Example 368, N-{1-[6-(Thiazolo[4,5-b]pyridin-2-yloxy)-benzofuran-3-carbonyl]-piperidin-4-yl}-acetamide] | 170 nM | 26 nM
9 | CC(C)N(C)C(=O)c1coc2cc(Oc3nc4ncccc4s3)ccc12 [Example 373, 6-(Thiazolo[4,5-b]pyridin-2-yloxy)-benzofuran-3-carboxylic acid isopropyl-methyl-amide] | 100 nM | 34 nM
10 | NC(=O)N1C[C@@H]2C[C@H]1CN2C(=O)c1coc2cc(Oc3nc4ncccc4s3)ccc12 [Example 375, (1S,4S)-5-[6-(Thiazolo[4,5-b]pyridin-2-yloxy)-benzofuran-3-carbonyl]-2,5-diaza-bicyclo[2.2.1]heptane-2-carboxylic acid amide] | 610 nM | 41 nM
11 | O=C(c1coc2cc(Oc3nc4ncccc4s3)ccc12)N1CCC(F)CC1 [Example 376, (4-Fluoro-piperidin-1-yl)-[6-(thiazolo[4,5-b]pyridin-2-yloxy)-benzofuran-3-yl]-methanone] | 85 nM | 13 nM
12 | O=C(c1coc2cc(Oc3nc4ncccc4s3)ccc12)N1CCC(c2ccccc2)CC1 [Example 377, (4-Phenyl-piperidin-1-yl)-[6-(thiazolo[4,5-b]pyridin-2-yloxy)-benzofuran-3-yl]-methanone] | 410 nM | 20 nM
13 | NC(=O)C1CCN(C(=O)c2coc3cc(Oc4nc5ncccc5s4)ccc23)CC1 [Example 378, 1-[6-(Thiazolo[4,5-b]pyridin-2-yloxy)-benzofuran-3-carbonyl]-piperidine-4-carboxylic acid amide] | 110 nM | 22 nM
14 | O=C(c1coc2cc(Oc3nc4ncccc4s3)ccc12)N1CCN(C2CCCCC2)CC1 [Example 379, (4-Cyclohexyl-piperazin-1-yl)-[6-(thiazolo[4,5-b]pyridin-2-yloxy)-benzofuran-3-yl]-methanone] | 150 nM | 10 nM
15 | CC(=O)N1CCN(C(=O)c2coc3cc(Oc4nc5ncccc5s4)ccc23)CC1 [Example 380, 1-{4-[6-(Thiazolo[4,5-b]pyridin-2-yloxy)-benzofuran-3-carbonyl]-piperazin-1-yl}-ethanone] | 35 nM | 7 nM
16 | O=C(c1coc2cc(Oc3nc4ncccc4s3)ccc12)N1CCC(Oc2ncccn2)CC1 [Example 382, [4-(Pyrimidin-2-yloxy)-piperidin-1-yl]-[6-(thiazolo[4,5-b]pyridin-2-yloxy)-benzofuran-3-yl]-methanone] | 60 nM | 10 nM
17 | NC(=O)N1C[C@@H]2C[C@H]1CN2 [Inter. 17, (1S,4S)-2,5-Diaza-bicyclo[2.2.1]heptane-2-carboxylic acid amide hydrochloride] | 1000 nM | 37 nM

Results, then the molecule that gave them:

Row | IC50 [1] | IC50 [2] | SMILES
18 | 200 nM | 50 nM | O=C(c1coc2cc(Oc3nc4ncccc4s3)ccc12)N1CCCCC1 [Example 383, Piperidin-1-yl-[6-(thiazolo[4,5-b]pyridin-2-yloxy)-benzofuran-3-yl]-methanone]
19 | 120 nM | 12 nM | O=C(c1coc2cc(Oc3nc4ncccc4s3)ccc12)N1CCC(C(=O)N2CCCCC2)CC1 [Example 384, [4-(Piperidine-1-carbonyl)-piperidin-1-yl]-[6-(thiazolo[4,5-b]pyridin-2-yloxy)-benzofuran-3-yl]-methanone]
20 | 270 nM | 27 nM | CC(=O)N1CCN(CC(=O)NCc2coc3cc(Oc4nc5ncccc5s4)ccc23)CC1 [Example 390, 2-(4-Acetyl-piperazin-1-yl)-N-[6-(thiazolo[4,5-b]pyridin-2-yloxy)-benzofuran-3-ylmethyl]-acetamide]
21 | 560 nM | 74 nM | Cc1cc(CC(=O)NCc2coc3cc(Oc4nc5ncccc5s4)ccc23)on1 [Example 391, 2-(3-Methyl-isoxazol-5-yl)-N-[6-(thiazolo[4,5-b]pyridin-2-yloxy)-benzofuran-3-ylmethyl]-acetamide]
22 | 290 nM | 29 nM | O=C(NCc1coc2cc(Oc3nc4ncccc4s3)ccc12)C1CCC(O)CC1 (stereo not shown) [Example 392, 4-Hydroxy-cyclohexanecarboxylic acid [6-(thiazolo[4,5-b]pyridin-2-yloxy)-benzofuran-3-ylmethyl]-amide]
23 | 820 nM | 16 nM | O=C1CCc2ccccc2N1Cc1coc2cc(Oc3nc4ncccc4s3)ccc12 [Example 397, 1-[6-(Thiazolo[4,5-b]pyridin-2-yloxy)-benzofuran-3-ylmethyl]-3,4-dihydro-1H-quinolin-2-one]
24 | 300 nM | 13 nM | O=C1Cc2ccccc2N1Cc1coc2cc(Oc3nc4ncccc4s3)ccc12 [Example 399, 1-[6-(Thiazolo[4,5-b]pyridin-2-yloxy)-benzofuran-3-ylmethyl]-1,3-dihydro-indol-2-one]
25 | 400 nM | 32 nM | O=C1Cc2ccc(Cl)cc2N1Cc1coc2cc(Oc3nc4ncccc4s3)ccc12 [Example 402, 6-Chloro-1-[6-(thiazolo[4,5-b]pyridin-2-yloxy)-benzofuran-3-ylmethyl]-1,3-dihydro-indol-2-one]
26 | 690 nM | 47 nM | O=C1Cc2cc(F)ccc2N1Cc1coc2cc(Oc3nc4ncccc4s3)ccc12 [Example 403, 5-Fluoro-1-[6-(thiazolo[4,5-b]pyridin-2-yloxy)-benzofuran-3-ylmethyl]-1,3-dihydro-indol-2-one]
